Measurements from ChEMBL document CHEMBL2434921, “New synthetic aliphatic sulfonamido-quaternary ammonium salts as anticancer chemotherapeutic agents” (2013).
Active and inactive are the calls of the source. The calls are words filed in the database; no cut-off is given here.

Experiments:
[1] = tested on: NCI-H23; assay: Growth of human NCI-H23 cells at 10 uM after 48 hrs by SRB assay; settings: NCI-H23, 48 h
[2] = tested on: NUGC-3; assay: Growth of human NUGC3 cells at 0.1 uM after 48 hrs by SRB assay; settings: NUGC-3, 48 h
[3] = tested on: MDA-MB-231; assay: Growth of human MDA-MB-231 cells at 3 uM after 48 hrs by SRB assay; values are per cent of control; settings: MDA-MB-231, 48 h
[4] = tested on: MDA-MB-231; assay: Growth inhibition of human MDA-MB-231 cells at 0.3 uM after 48 hrs by SRB assay; values are per cent of control; settings: MDA-MB-231, 48 h
[5] = tested on: ACHN; assay: Growth of human ACHN cells at 0.3 uM after 48 hrs by SRB assay
[6] = tested on: ACHN; assay: Growth of human ACHN cells at 0.1 uM after 48 hrs by SRB assay
[7] = tested on: NUGC-3; assay: Growth inhibition of human NUGC3 cells after 48 hrs by SRB assay; assay type: functional; settings: NUGC-3, 48 h
[8] = tested on: NUGC-3; assay: Growth of human NUGC3 cells at 0.3 uM after 48 hrs by SRB assay; settings: NUGC-3, 48 h
[9] = tested on: HCT-15; assay: Growth of human HCT15 cells at 0.3 uM after 48 hrs by SRB assay; settings: HCT-15, 48 h
[10] = tested on: MDA-MB-231; assay: Growth of human MDA-MB-231 cells at 10 uM after 48 hrs by SRB assay; settings: MDA-MB-231, 48 h
[11] = tested on: ACHN; assay: Growth of human ACHN cells at 10 uM after 48 hrs by SRB assay
[12] = tested on: NCI-H23; assay: Growth of human NCI-H23 cells at 0.3 uM after 48 hrs by SRB assay; settings: NCI-H23, 48 h
[13] = tested on: PC-3; assay: Growth inhibition of human PC3 cells at 0.3 uM after 48 hrs by SRB assay; values are per cent of control; settings: PC-3, 48 h
[14] = tested on: NUGC-3; assay: Growth of human NUGC3 cells at 1 uM after 48 hrs by SRB assay; settings: NUGC-3, 48 h
[15] = tested on: NCI-H23; assay: Growth inhibition of human NCI-H23 cells after 48 hrs by SRB assay; assay type: functional; settings: NCI-H23, 48 h
[16] = tested on: HCT-15; assay: Growth inhibition of human HCT15 cells at 10 uM after 48 hrs by SRB assay; values are per cent of control; settings: HCT-15, 48 h
[17] = tested on: NCI-H23; assay: Growth inhibition of human NCI-H23 cells at 1 uM after 48 hrs by SRB assay; values are per cent of control; settings: NCI-H23, 48 h
[18] = tested on: PC-3; assay: Growth inhibition of human PC3 cells at 3 uM after 48 hrs by SRB assay; values are per cent of control; settings: PC-3, 48 h
[19] = tested on: ACHN; assay: Growth inhibition of human ACHN cells after 48 hrs by SRB assay; assay type: functional
[20] = tested on: ACHN; assay: Growth inhibition of human ACHN cells at 3 uM after 48 hrs by SRB assay; values are per cent of control
[21] = tested on: NUGC-3; assay: Growth inhibition of human NUGC3 cells at 10 uM after 48 hrs by SRB assay; values are per cent of control; settings: NUGC-3, 48 h
[22] = tested on: PC-3; assay: Growth inhibition of human PC3 cells at 0.1 uM after 48 hrs by SRB assay; values are per cent of control; settings: PC-3, 48 h
[23] = tested on: HCT-15; assay: Growth inhibition of human HCT15 cells after 48 hrs by SRB assay; assay type: functional; settings: HCT-15, 48 h
[24] = tested on: PC-3; assay: Growth inhibition of human PC3 cells at 1 uM after 48 hrs by SRB assay; values are per cent of control; settings: PC-3, 48 h
[25] = tested on: NCI-H23; assay: Growth inhibition of human NCI-H23 cells at 3 uM after 48 hrs by SRB assay; values are per cent of control; settings: NCI-H23, 48 h
[26] = tested on: NUGC-3; assay: Growth inhibition of human NUGC3 cells at 3 uM after 48 hrs by SRB assay; values are per cent of control; settings: NUGC-3, 48 h
[27] = tested on: MDA-MB-231; assay: Growth of human MDA-MB-231 cells at 0.1 uM after 48 hrs by SRB assay; settings: MDA-MB-231, 48 h
[28] = tested on: HCT-15; assay: Growth inhibition of human HCT15 cells at 1 uM after 48 hrs by SRB assay; values are per cent of control; settings: HCT-15, 48 h
[29] = tested on: PC-3; assay: Growth inhibition of human PC3 cells after 48 hrs by SRB assay; assay type: functional; settings: PC-3, 48 h
[30] = tested on: HCT-15; assay: Growth inhibition of human HCT15 cells at 0.1 uM after 48 hrs by SRB assay; values are per cent of control; settings: HCT-15, 48 h
[31] = tested on: HCT-15; assay: Growth of human HCT15 cells at 3 uM after 48 hrs by SRB assay; settings: HCT-15, 48 h
[32] = biological target: Rho-related GTP-binding protein RhoB (Homo sapiens) (UniProt P62745); assay: Transactivation of RhoB (unknown origin) transfected in human HeLa cells at 5 uM measured over 10 secs by dual luciferase reporter gene assay; assay type: cell-based
[33] = tested on: MDA-MB-231; assay: Growth inhibition of human MDA-MB-231 cells after 48 hrs by SRB assay; assay type: functional; settings: MDA-MB-231, 48 h
[34] = tested on: MDA-MB-231; assay: Growth of human MDA-MB-231 cells at 1 uM after 48 hrs by SRB assay; settings: MDA-MB-231, 48 h
[35] = tested on: NCI-H23; assay: Growth inhibition of human NCI-H23 cells at 0.1 uM after 48 hrs by SRB assay; values are per cent of control; settings: NCI-H23, 48 h
[36] = tested on: PC-3; assay: Growth of human PC3 cells at 10 uM after 48 hrs by SRB assay; settings: PC-3, 48 h
[37] = tested on: ACHN; assay: Growth inhibition of human ACHN cells at 1 uM after 48 hrs by SRB assay; values are per cent of control

Chain of Rho-related GTP-binding protein RhoB (Homo sapiens) (P62745 whole entry): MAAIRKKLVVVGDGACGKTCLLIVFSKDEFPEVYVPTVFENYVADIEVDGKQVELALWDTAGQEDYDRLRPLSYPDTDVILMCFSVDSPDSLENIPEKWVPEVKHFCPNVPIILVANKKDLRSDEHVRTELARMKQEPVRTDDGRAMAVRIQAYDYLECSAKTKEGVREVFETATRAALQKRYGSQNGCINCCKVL

Row | GI50 [15] | GI50 [19] | SMILES | growth, % of control at 10 µM [1] | growth, % of control at 0.1 µM [2] | growth, % of control at 3 µM [3] | growth, % of control at 0.3 µM [4] | growth, % of control at 0.3 µM [5] | growth, % of control at 0.1 µM [6] | GI50 [7] | growth, % of control at 0.3 µM [8] | growth, % of control at 0.3 µM [9] | growth, % of control at 10 µM [10] | growth, % of control at 10 µM [11] | growth, % of control at 0.3 µM [12] | growth, % of control at 0.3 µM [13] | growth, % of control at 1 µM [14] | growth, % of control at 10 µM [16] | growth, % of control at 1 µM [17] | growth, % of control at 3 µM [18] | growth, % of control at 3 µM [20] | further results
1 | 0.31 µM | 2.6 µM | CCCCCCCCCCCCCCS(=O)(=O)NCC(C)(C)C[N+](C)(C)C | -30.5% | 81.8% | 55.9% | 88.5% | 84.8% | 91.3% | 0.32 µM | 75.5% | 94.3% | 31% | 37.4% | 76.8% | 73.8% | 35.9% | 19.4% | 31.4% | 9.8% | 57.1% | growth, % of control at 10 µM [21]: -8.2%; growth, % of control at 0.1 µM [22]: 76.1%; GI50 [23]: 1.7 µM; growth, % of control at 1 µM [24]: 46%; growth, % of control at 3 µM [25]: 1.5%; growth, % of control at 3 µM [26]: 8.9%; growth, % of control at 0.1 µM [27]: 94.3%; growth, % of control at 1 µM [28]: 89.2%; GI50 [29]: 0.35 µM; growth, % of control at 0.1 µM [30]: 98.1%; growth, % of control at 3 µM [31]: 48.2%; Activity [32]: Active; GI50 [33]: 2.11 µM; growth, % of control at 1 µM [34]: 77.6%; growth, % of control at 0.1 µM [35]: 88.5%; growth, % of control at 10 µM [36]: -0.3%; growth, % of control at 1 µM [37]: 79.4%
2 | 1.29 µM | 1.6 µM | CCCCCCCCCCCCCCCCS(=O)(=O)N(C)CC[N+](C)(C)C | 6.8% | 89.4% | 32.7% | 95.7% | 90.3% | 99.4% | 0.33 µM | 74.1% | 91.4% | 8% | 25.5% | 101% | 90.3% | 32.2% | 19.5% | 80.3% | 17.6% | 51.4% | growth, % of control at 10 µM [21]: 2.7%; growth, % of control at 0.1 µM [22]: 99.4%; GI50 [23]: 0.7 µM; growth, % of control at 1 µM [24]: 56.8%; growth, % of control at 3 µM [25]: 41.8%; growth, % of control at 3 µM [26]: 14.4%; growth, % of control at 0.1 µM [27]: 98.2%; growth, % of control at 1 µM [28]: 55.3%; GI50 [29]: 0.62 µM; growth, % of control at 0.1 µM [30]: 95.7%; growth, % of control at 3 µM [31]: 22.4%; Activity [32]: Active; GI50 [33]: 0.93 µM; growth, % of control at 1 µM [34]: 66.8%; growth, % of control at 0.1 µM [35]: 103%; growth, % of control at 10 µM [36]: -3.1%; growth, % of control at 1 µM [37]: 69.7%
3 | 0.43 µM | 0.95 µM | CCCCCCCCCCCCCCCCS(=O)(=O)N(C)CCC[N+](C)(C)CC | -22.7% | 76.9% | 27.3% | 89.2% | 92.1% | 102% | 0.2 µM | 63.4% | 87.4% | 0% | 1.6% | 73.1% | 88.2% | 16.9% | 15.7% | 58.8% | -17.9% | 35.6% | growth, % of control at 10 µM [21]: -27.9%; growth, % of control at 0.1 µM [22]: 91.6%; GI50 [23]: 0.78 µM; growth, % of control at 1 µM [24]: 25%; growth, % of control at 3 µM [25]: 14.8%; growth, % of control at 3 µM [26]: -14.1%; growth, % of control at 0.1 µM [27]: 94.8%; growth, % of control at 1 µM [28]: 56.5%; GI50 [29]: 0.36 µM; growth, % of control at 0.1 µM [30]: 85.4%; growth, % of control at 3 µM [31]: 30.5%; Activity [32]: Active; GI50 [33]: 0.69 µM; growth, % of control at 1 µM [34]: 54.4%; growth, % of control at 0.1 µM [35]: 70.4%; growth, % of control at 10 µM [36]: -28.9%; growth, % of control at 1 µM [37]: 64.5%
4 | 0.47 µM | 1.46 µM | CCCCCCCCCCCCCCS(=O)(=O)N(C)CC[N+](CC)(CC)CC | -5.6% | 92% | 34.1% | 95.3% | 94.5% | 96.4% | 0.32 µM | 83.8% | 96.6% | 17.2% | 21.2% | 90.1% | 102% | 20.9% | 36% | 39.8% | 0.9% | 48.6% | growth, % of control at 10 µM [21]: -1.3%; growth, % of control at 0.1 µM [22]: 103%; GI50 [23]: 3.46 µM; growth, % of control at 1 µM [24]: 41.4%; growth, % of control at 3 µM [25]: 15%; growth, % of control at 3 µM [26]: 7.9%; growth, % of control at 0.1 µM [27]: 96.4%; growth, % of control at 1 µM [28]: 87.1%; GI50 [29]: 0.52 µM; growth, % of control at 0.1 µM [30]: 95.3%; growth, % of control at 3 µM [31]: 72.5%; Activity [32]: Active; GI50 [33]: 0.87 µM; growth, % of control at 1 µM [34]: 54.2%; growth, % of control at 0.1 µM [35]: 97.3%; growth, % of control at 10 µM [36]: -11.5%; growth, % of control at 1 µM [37]: 68.7%
5 | 1.56 µM | 1.89 µM | CCCCCCCCCCCCCCCCS(=O)(=O)NCCC[N+](C)(C)C | -23.1% | 103% | 41% | 108% | 119% | 117% | 0.56 µM | 93.6% | 93% | 12.9% | -7.7% | 93.7% | 102% | 60.2% | 1.7% | 88.6% | -1% | 80.3% | growth, % of control at 10 µM [21]: -37.7%; growth, % of control at 0.1 µM [22]: 100%; GI50 [23]: 0.86 µM; growth, % of control at 1 µM [24]: 64.6%; growth, % of control at 3 µM [25]: 47.1%; growth, % of control at 3 µM [26]: -5.5%; growth, % of control at 0.1 µM [27]: 103%; growth, % of control at 1 µM [28]: 73.6%; GI50 [29]: 0.58 µM; growth, % of control at 0.1 µM [30]: 96%; growth, % of control at 3 µM [31]: 22.4%; Activity [32]: Active; GI50 [33]: 1.39 µM; growth, % of control at 1 µM [34]: 87%; growth, % of control at 0.1 µM [35]: 86.7%; growth, % of control at 10 µM [36]: -32.7%; growth, % of control at 1 µM [37]: 112%
